In patent US7354711B2, “Methods for inhibiting immunostimulatory DNA associated responses” (University of Iowa Research Foundation, priority 1997, dated 2008):

Assays:
WEHI 231 cells [1] = assay: Protection by lipopolysaccharide against α-sIgM-induced inhibition of [3H] thymidine uptake; type: cell-based, mouse; conditions: 0.1 μM quinacrine, concentration that completely reversed the effect of ODN 1760
Method: (§1) The assay of [^3H] Thymidine incorporation was carried out as follows. WEHI 231 cells (200 μL at 2×10^5/milliliter, in duplicate or triplicate) were incubated in a 96-well plate (Costar, Cambridge Mass.). Additions were made as indicated. After incubating for 16 hours, 0.5 μCi [methyl-^3H] thymidine (2 Ci/millimole, DuPont NEN, Boston Mass.) was added to each well, and the cells were incubated for another 4 hours. Cellular DNA was then captured onto glass fiber filters (Whatman 934AH) using a cell harvester (Brandel, Gaithersberg Md.). The filters were dried, placed into plastic scintillation vials with 10 milliliters of scintillation cocktail (EconoSafe, Research Products International, Mount Prospect Ill.), and counted in a liquid scintillation counter (Beckman LS-3133 T). The ^3H recovered on the filter was expressed as a fraction of the ^3H added. In a typical experiment, WEHI 231 cells incorporate about 15% of added ^3H.
In the experiments summarized in FIG. 5, the influence of LPS on α-sIgM-induced suppression of thymidine incorporation was examined.
Lipopolysaccharide (LPS) was added at the indicated concentration with or without 10 μgrams/milliliter α-sIgM and 0.1 μM quinacrine. The small degree of protection against α-sIgM-induced inhibition of [^3H] thymidine uptake afforded by LPS is not influenced by quinacrine.

[2] = system: human peripheral blood mononuclear cells (PBMC); assay: ODN 1760-induced IL-6 production in human peripheral blood mononuclear cells; type: cell-based; conditions: 24 hours
Method: Referring to the experiments summarized in FIG. 9, human peripheral blood mononuclear cells (PBMC) from three donors were incubated with or without ODN 1760 and the indicated concentration of test compound. After 24 hours, the concentration of IL-6 was determined in the supernatant. The figure indicates the percentage of IL-6 in reference to ODN-treated cells. The IL-6 amounts for control sample per donor were as follows: donor 1, 203 picograms/milliliter; donor 2, 71.5 picograms/milliliter; donor 3, 465 picograms/milliliter. IL-6 measured from untreated cells was 0-21 picograms/milliliter. Results from the three donors were averaged, and error bars indicate 1 standard deviation.

[3] = system: multi-drug resistance pump; assay: Potency with inhibition of the multi-drug resistance pump; type: cell-based
WEHI 231 cells [4] = assay: CpG-ODN-induced IL-6 synthesis (ELISA); type: cell-based, mouse; conditions: 10 nM
Method: The assay of IL6 was generally carried out as follows. […] After 24 hours, the IL-6 content of the supernatant was assayed by enzyme-linked immunoassay using two monoclonal antibodies in a sandwich technique as described by the manufacturer, using standards supplied (PharMingen, San Diego Calif.).

WEHI 231 cells [5] = assay: Protection by ODN against thapsigargin-induced DNA fragmentation; type: cell-based, mouse; conditions: 0.1 μM quinacrine, 10 nM thapsigargin, 24 hours
Method: The DNA fragmentation assay was carried out generally as follows. WEHI 231 cells were incubated with 0.5 μCi/milliliter [^3H] thymidine for 3 hours, centrifuged, resuspended in 2 milliliters of fresh medium at 2×10^5/milliliter, and incubated in a 24-well plate with additions as indicated. After incubation for 16-18 hours, 1 milliliter aliquots of the cells were centrifuged, washed with 200 μliters PBS. This suspension was drawn into a pipette tip containing 25 μliters of 2% SDS, and the mixture was immediately ejected into a well of a 0.8% agarose TBE gel containing 0.5 μliter/milliliter ethidium bromide. The gel was electrophoresed for 1 hour at 65 volts, destained in water, and photographed under ultraviolet light. The lanes of the gel were cut into three approximately equal portions. The first portion included the gel well and the first 2 millimeters of the running lane. The second and third pieces were the remainder of the lane. The gel portions were melted in glass scintillation vials and mixed with a 20 milliliter of scintillation cocktail and counted in a scintillation counter. The amount of fragmented DNA (DNA in the second and third gel pieces) was expressed as a percentage of the total counts recovered in the lane. […]

WEHI 231 cells [6] = conditions: 0.1 μM quinacrine
Method: Unless otherwise noted, cell culture conditions were as follows. WEHI 231 cells (ATTC #CRL 1702) were grown in log phase in a medium of RPMI 1640 supplemented with 10% fetal bovine serum (heat inactivated at 65° C. for one hour), 0.3 grams/Liter of L-glutamine, 50 milligrams/Liter gentamycin, and 0.05 mM 2-mercaptoethanol in a 37° C. humid atmosphere with 5% CO2. WEHI 231 cells were diluted with 0.4% trypan blue in phosphate-buffered saline (PBS) and live cells were counted in a hemocytometer chamber. Cells were resuspended in medium at 2×10^5/milliliter in 24-well tissue culture plates (Costar, Cambridge Mass.). Appropriate additions were made, and the cells were incubated and counted daily. WEHI 231 cells were diluted with fresh medium if the concentration exceeded 7×10^5/milliliter.
Referring to the experiments summarized in FIG. 2a, WEHI 231 cells (2×10^5 per milliliter) were incubated with or without 6 μgrams/milliliter ODN 1760, 10 μgrams/milliliter α-sIgM, or 0.1 μM quinacrine as indicated. Live cells were counted daily. The cells were diluted in medium if their concentration exceeded 7×10^5 per milliliter.

WEHI 231 cells [7] = assay: Protection by ODN 1760 against C2-ceramide-induced inhibition of [3H] thymidine uptake; type: cell-based, mouse; conditions: 0.1 μM quinacrine, 6 μg/mL ODN
Method: as §1
Referring to the experiments summarized in FIG. 6, WEHI 231 cells were incubated with C2-ceramide as indicated with or without 6 μgrams/milliliter ODN and 0.1 μM quinacrine and thymidine incorporation was estimated. Referring to the experiments summarized in FIG. 7, WEHI 231 cells were prelabeled with 0.5 μCi/milliliter [^3H] thymidine for 3 hours, and resuspended in fresh medium containing 10 nM thapsigargin. […]

human mononuclear cells = assay: ODN 1760-induced [3H] thymidine incorporation in human mononuclear cells; type: cell-based; conditions: unfractionated human peripheral blood cells, four days
Method: [^3H] thymidine incorporation (18 hour pulse) was then measured. […] Thymidine incorporation for untreated samples was less than 0.05%. Samples from three donors were averaged, and error bars indicate 1 standard deviation.

SMILES: CCN(CC)CCCC(C)Nc1c2ccc(Cl)cc2nc2ccc(OC)cc12 (stereo not drawn) [quinacrine]
- Effect on the action of LPS (FIG. 5) (WEHI 231 cells [1]): no effect
- Effect on ODN 1760-induced IL-6 production (FIG. 9) [2]: inhibited
- Change of potency on inhibition of the multi-drug resistance pump [3]: magnified
- Reversal of ODN 1760 effect on IL-6 elaboration (WEHI 231 cells [4]): completely reversed
- Block of ODN 1760 protection against thapsigargin-induced DNA fragmentation (FIG. 7) (WEHI 231 cells [5]): blocked the protective effect
- Influence of compound alone on cell growth and on cell death induced by α-sIgM (WEHI 231 cells [6]): influenced neither cell growth nor cell death
- Reversal of ODN 1760 protection, cell count over a period of three days (FIG. 2a) (WEHI 231 cells [6]; 6 μg/mL ODN 1760, 10 μg/mL α-sIgM): reversed this protection
- Block of ODN 1760 protection against C2-ceramide (FIG. 6) (WEHI 231 cells [7]): blocked this protective effect
- Effect on ODN 1760-induced thymidine incorporation (FIG. 8) (human mononuclear cells): inhibited
